According to article PMC4467398, “Preclinical antitumor activity of ST7612AA1: a new oral thiol-based histone deacetylase (HDAC) inhibitor” (Oncotarget, 2014):
Entries after “also recorded” stand apart in the source; their conditions may differ.

Tests used:
[1] = PK sampling and analysis after a single oral dose of ST7612AA1 (plasma, LC-MS/MS); format: in vivo, CD1 mice; conditions: single oral dose of 120 mg/kg; limit of quantification 25 ng/mL
Experimental: CD1 nude mice were used. Male mice were treated with a single dose of ST7612AA1 at 120 mg/10 mL/kg p.o., using 5% Solutol HS 15 in water for injection as vehicle. Blood samples were collected at 0.25, 0.5, 1, 2, 4 and 6 h post treatment from 5 animals per time point. Levels of ST7612AA1 and ST7464AA1 were determined in plasma by quantitative LC-MS/MS having a limit of quantification of 25 ng/mL. The PK parameters Cmax (maximum plasma concentration), Tmax (time of maximum plasma concentration), Clast (last quantifiable concentration), Tlast (time of last quantifiable plasma concentration), AUClast (area under the concentration vs time curve from 0 to Tlast), AUCINF (area under the concentration vs time curve from 0 to infinity), T1/2 (terminal half-life), CL/F (apparent systemic clearance) and Vz/F (apparent terminal volume of distribution) were derived from the analyte plasma concentration vs time data according to a model independent approach for sparse data sampling by using Phoenix WinNonlin® ver. 6.3 software (Pharsight, Cetara).

Breast cancer MDA-MB436 = assay: In vitro proliferation assay (sulphorodamine B); format: cell-based; conditions: Homo sapiens, MDA-MB-436, 72 h, mean ± S.E.M.
GCB-DLBCL OCI-Ly7 = assay: In vitro proliferation assay (MTT); format: cell-based; conditions: Homo sapiens, 72 h, mean ± S.E.M.
Experimental: (§1) Anti-proliferative activity was first assessed on a panel of cell lines derived from solid tumors and hematological cancers and then on a large panel of cell lines derived from mature B-cell lymphomas. […] Lymphoma cells were seeded in 96-wells tissue culture plates in complete medium and were exposed to increasing concentrations of ST7612AA1 for 48 or 72 h; the anti-proliferative activity was assessed using 3-(4,5-dimethylthiazol-2-yl)-2,5-diphenyltetrazolium bromide (MTT). The drug potency was evaluated by means of the “ALLFIT” computer program and defined as IC50 (drug concentration required for 50% inhibition of cell survival).

GCB-DLBCL Karpas422 = assay: In vitro proliferation assay (MTT); format: cell-based; conditions: Homo sapiens, KARPAS-422, 72 h, mean ± S.E.M.
Experimental: as §1

[2] = system: Splenic marginal zone lymphoma SSK41; assay: In vitro proliferation assay (MTT); format: cell-based; conditions: Homo sapiens, 72 h, mean ± S.E.M.
Experimental: as §1

[3] = system: Splenic marginal zone lymphoma VL51; assay: In vitro proliferation assay (MTT); format: cell-based; conditions: Homo sapiens, 72 h, mean ± S.E.M.
Experimental: as §1

GCB-DLBCL SUDHL-6 = assay: In vitro proliferation assay (MTT); format: cell-based; conditions: Homo sapiens, SU-DHL-6, 72 h, mean ± S.E.M.
Experimental: as §1

[4] = system: Splenic marginal zone lymphoma K1718; assay: In vitro proliferation assay (MTT); format: cell-based; conditions: Homo sapiens, 72 h, mean ± S.E.M.
Experimental: as §1

ABC-DLBCL OCI-Ly10 = assay: In vitro proliferation assay (MTT); format: cell-based; conditions: Homo sapiens, 72 h, mean ± S.E.M.
Experimental: as §1

GCB-DLBCL VAL = assay: In vitro proliferation assay (MTT); format: cell-based; conditions: Homo sapiens, 72 h, mean ± S.E.M.
Experimental: as §1

[5] = system: Mantle cell lymphoma MAVER1; assay: In vitro proliferation assay (MTT); format: cell-based; conditions: Homo sapiens, 72 h, mean ± S.E.M.
Experimental: as §1

GCB-DLBCL SUDHL-4 = assay: In vitro proliferation assay (MTT); format: cell-based; conditions: Homo sapiens, SU-DHL-4, 72 h, mean ± S.E.M.
Experimental: as §1

ABC-DLBCL TMD8 = assay: In vitro proliferation assay (MTT); format: cell-based; conditions: Homo sapiens, 72 h, mean ± S.E.M.
Experimental: as §1

[6] = system: Mantle cell lymphoma Jeko-1; assay: In vitro proliferation assay (MTT); format: cell-based; conditions: Homo sapiens, 72 h, mean ± S.E.M.
Experimental: as §1

GCB-DLBCL DOHH2 = assay: In vitro proliferation assay (MTT); format: cell-based; conditions: Homo sapiens, DOHH-2, 72 h, mean ± S.E.M.
Experimental: as §1

[7] = system: Mantle cell lymphoma Granta-519; assay: In vitro proliferation assay (MTT); format: cell-based; conditions: Homo sapiens, 72 h, mean ± S.E.M.
Experimental: as §1

ABC-DLBCL U2932 = assay: In vitro proliferation assay (MTT); format: cell-based; conditions: Homo sapiens, 72 h, mean ± S.E.M.
Experimental: as §1

GCB-DLBCL OCI-Ly8 = assay: In vitro proliferation assay (MTT); format: cell-based; conditions: Homo sapiens, 72 h, mean ± S.E.M.
Experimental: as §1

[8] = system: Mantle cell lymphoma REC-1; assay: In vitro proliferation assay (MTT); format: cell-based; conditions: Homo sapiens, Rec1, 72 h, mean ± S.E.M.
Experimental: as §1

T-cell lymphoma HUT78 = assay: In vitro proliferation assay (MTT); format: cell-based; conditions: Homo sapiens, 72 h, mean ± S.E.M.
Experimental: as §1

Colon cancer HCT116 = assay: In vitro proliferation assay (sulphorodamine B); format: cell-based; conditions: Homo sapiens, HCT-116, 72 h, mean ± S.E.M.
HCT116 tumor xenografts = assay: Western blot of tumor xenografts after oral ST7612AA1; format: in vivo, nude mice; conditions: xenografts collected 24 h after the last oral administration; 80 mg/10 mL/kg qdx5/wx3w
Experimental: In order to assess the in vivo effect of ST7612AA1 on the acetylation degree of α-tubulin and histones, and on the expression of other key proteins, HCT116 tumor xenografts (3 samples/group) were excised at different times after the last treatment, and then total protein lysates were prepared through the homogenization of tumor samples in lysis buffer containing 0.5% NP-40, supplemented with 10 μg/mL of protease inhibitor cocktail (Sigma Chemical Co., St. Louis, MO, USA). Determination of the protein concentration and Western Blotting analysis were finally performed as above described for the in vitro experiments. The antibodies used are listed in Supplementary Table 2.

GCB-DLBCL model DOHH2 = assay: In vivo lymphoma xenograft model; set-up: species or system NOD-SCID mice; conditions: po at days 12, 13, 15, 16, 18, 19 after tumor injection; vs control mice
Experimental: The in vivo experiment with lymphoma model was performed in the IOR laboratory according to study protocols approved by the local Cantonal Veterinary Authority (No. 5/2011). At day 1, tumors were established by injecting DOHH2 lymphoma cells (200 μL of PBS, 8×10^6 cells/mouse) into the left flanks of 5-weeks old female NOD-SCID mice (Harlan Laboratories). Tumor size was measured on regular basis and until tumors reached around […] in diameter (day 12). Then, treatments were conducted at day 12, 13, 15, 16, 18, 19. Tumors were measured at 12, 14, 17, 21, 25 days. Tumor volumes were calculated as described above. Mice were sacrificed when physical conditions became critical or when tumors reached a weight of about 0.5 gr. For comparison between a control and a treatment group, an unpaired Mann-Whitney's test was used. A P-value <0.05 was considered significant.

[9] = system: Acute myeloid leukemia U937; assay: In vitro proliferation assay (sulphorodamine B); format: cell-based; conditions: Homo sapiens, U-937, 72 h, mean ± S.E.M.

CC(=O)SCCCCC[C@H](NC(=O)[C@H]1CCC(=O)N1)C(=O)Nc1ccccc1 [ST7612AA1]
ST7612AA1 in plasma after oral administration [1]: not detected | IC50 (Breast cancer MDA-MB436): 0.18 ± 0.01 µM | IC50 (GCB-DLBCL OCI-Ly7): 0.56 µM | IC50 (GCB-DLBCL Karpas422): 2.66 µM | IC50 [2]: 0.26 µM | IC50 [3]: 0.12 µM | IC50 (GCB-DLBCL SUDHL-6): 0.63 µM | IC50 [4]: 0.1 ± 0.01 µM | IC50 (ABC-DLBCL OCI-Ly10): 0.26 µM | IC50 (GCB-DLBCL VAL): 2.36 µM | IC50 [5]: 0.39 µM | IC50 (GCB-DLBCL SUDHL-4): 0.98 µM | IC50 (ABC-DLBCL TMD8): 0.1 ± 0.03 µM | IC50 [6]: 0.25 ± 0.01 µM | IC50 (GCB-DLBCL DOHH2): 0.046 ± 0.01 µM | IC50 [7]: 0.47 µM | IC50 (ABC-DLBCL U2932): 0.8 µM | IC50 (GCB-DLBCL OCI-Ly8): 0.24 µM | IC50 [8]: 0.55 µM | IC50 (T-cell lymphoma HUT78): 0.48 ± 0.02 µM | IC50 (Colon cancer HCT116): 0.075 ± 0.01 µM | HSP70 levels (HCT116 tumor xenografts): significant increase | HSP90 protein levels (HCT116 tumor xenografts): dramatic decrease | acetylated α-tubulin levels (HCT116 tumor xenografts): increased levels | pan H3 acetylation (HCT116 tumor xenografts): strong induction | tumor progression / tumor volumes (GCB-DLBCL model DOHH2): decreased tumor volumes; also recorded: significant delay in tumor progression | IC50 [9]: 0.049 µM
